Laboratory results: PMC2706530 (Hypertension, 2009)
Each block holds one compound with its values, some of them ahead of it.

Tests used:
Assay type in all cases: biochemical
[1] = molecular target: aminopeptidase-A (Rattus norvegicus, UniProt P50123); assay: Effect of APA inhibitor on ANG-I conversion by isolated rat glomeruli; conditions: 100 μM amastatin, 1 μM ANG-I
[2] = system: ANG-II type 1-receptor; assay: Effect of losartan pre-incubation on ANG-II detection in isolated rat glomeruli; conditions: pre-incubation with 10 μM losartan, 1 μM ANG-I; data not shown
[3] = molecular target: T1, neprilysin (Rattus norvegicus, UniProt P07861); assay: Effect of NEP inhibitor on ANG-I conversion by isolated rat glomeruli; conditions: 10 μM thiorphan, 1 μM ANG-I, 15-90 minutes; p < 0.05 vs. untreated; n=7
T1 sequence (P07861 1-750): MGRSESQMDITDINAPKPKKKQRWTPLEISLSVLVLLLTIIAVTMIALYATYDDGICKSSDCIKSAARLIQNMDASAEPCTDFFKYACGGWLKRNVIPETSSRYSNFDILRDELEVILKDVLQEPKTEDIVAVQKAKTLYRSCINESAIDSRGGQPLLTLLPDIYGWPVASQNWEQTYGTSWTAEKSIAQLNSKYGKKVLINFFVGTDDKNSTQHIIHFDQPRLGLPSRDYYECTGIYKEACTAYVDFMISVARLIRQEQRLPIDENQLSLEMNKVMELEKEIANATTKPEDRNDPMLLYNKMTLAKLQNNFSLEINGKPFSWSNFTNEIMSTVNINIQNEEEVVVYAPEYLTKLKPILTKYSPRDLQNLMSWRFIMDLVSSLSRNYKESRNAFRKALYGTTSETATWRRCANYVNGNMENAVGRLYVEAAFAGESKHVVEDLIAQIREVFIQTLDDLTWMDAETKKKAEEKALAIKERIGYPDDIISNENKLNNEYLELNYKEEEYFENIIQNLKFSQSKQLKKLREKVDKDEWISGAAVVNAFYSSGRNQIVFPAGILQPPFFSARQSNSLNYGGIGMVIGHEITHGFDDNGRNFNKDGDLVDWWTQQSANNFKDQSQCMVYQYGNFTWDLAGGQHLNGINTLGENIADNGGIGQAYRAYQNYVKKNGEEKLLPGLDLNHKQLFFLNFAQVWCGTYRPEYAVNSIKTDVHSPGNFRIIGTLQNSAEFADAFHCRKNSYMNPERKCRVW

Sequence of aminopeptidase-A (P50123 whole entry): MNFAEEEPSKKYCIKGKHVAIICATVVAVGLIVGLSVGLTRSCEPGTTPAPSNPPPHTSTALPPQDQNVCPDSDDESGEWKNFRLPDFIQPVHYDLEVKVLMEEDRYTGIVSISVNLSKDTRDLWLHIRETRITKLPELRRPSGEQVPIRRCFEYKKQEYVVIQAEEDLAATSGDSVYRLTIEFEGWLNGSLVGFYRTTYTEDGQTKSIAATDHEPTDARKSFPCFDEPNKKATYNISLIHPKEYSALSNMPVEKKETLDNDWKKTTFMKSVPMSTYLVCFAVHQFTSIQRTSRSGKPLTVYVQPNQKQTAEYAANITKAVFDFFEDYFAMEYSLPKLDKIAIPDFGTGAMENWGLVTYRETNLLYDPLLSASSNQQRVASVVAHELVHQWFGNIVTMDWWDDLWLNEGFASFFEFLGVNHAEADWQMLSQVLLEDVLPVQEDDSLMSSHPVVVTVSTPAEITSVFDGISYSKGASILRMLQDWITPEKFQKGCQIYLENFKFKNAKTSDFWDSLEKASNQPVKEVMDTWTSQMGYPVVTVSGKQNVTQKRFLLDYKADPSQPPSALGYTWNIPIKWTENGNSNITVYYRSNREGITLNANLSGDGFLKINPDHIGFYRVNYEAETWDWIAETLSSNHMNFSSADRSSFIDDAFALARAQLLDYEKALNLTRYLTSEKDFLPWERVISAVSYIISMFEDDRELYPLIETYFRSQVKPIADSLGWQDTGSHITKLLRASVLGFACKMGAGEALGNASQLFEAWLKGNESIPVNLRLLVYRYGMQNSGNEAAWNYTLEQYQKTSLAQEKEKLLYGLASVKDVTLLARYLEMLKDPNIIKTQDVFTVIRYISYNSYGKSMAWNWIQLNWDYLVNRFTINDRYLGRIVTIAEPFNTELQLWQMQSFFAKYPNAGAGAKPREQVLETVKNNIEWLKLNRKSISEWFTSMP

- effect on disappearance of ANG-I (APA inhibition) ([1]; 15-90 minutes, p < 0.05 vs. untreated, n=7): significantly reduced
- change in ANG-II, amastatin-treated ([1]; 60 minutes): non-significant increase
SMILES: CC(C)C[C@@H](N)[C@H](O)C(=O)N[C@H](C(=O)N[C@H](C(=O)N[C@@H](CC(=O)O)C(=O)O)C(C)C)C(C)C [amastatin]

SMILES: CCCCc1nc(Cl)c(CO)n1Cc1ccc(-c2ccccc2-c2nn[nH]n2)cc1 [losartan]
- effect on detection of ANG-II [2]: did not enhance the detection of ANG-II

- effect on disappearance of ANG-I (NEP inhibition) [3]: significantly reduced
SMILES: O=C(O)CNC(=O)C(CS)Cc1ccccc1 (stereo not shown) [thiorphan]
